This passage reports solubility in water and short term stability results from patent US20160303040A1, “INJECTABLE PHARMACEUTICAL COMPOSITIONS COMPRISING PROSTACYCLIN” (RIGSHOSPITALET, priority 2013, published 2016).

For series [1] the following is noted: cited from earlier work.
Series [2] can be described thus: 10 days short term stability study on iloprost standards diluted with isotonic sodium chloride. The class given is physicochemical. The following applies: stored at 5° C., after dilution with isotonic sodium chloride solution. Here is the method:
A: A concentration iloprost equal to 20 μg/ml (was used for the optimization of the HPLC procedure, UV 210 nm)
B: 0.9% sodium chloride in milliQ water (0.9 g NaCl in 100 ml water)
C: 100 μl of A and 900 μl of B: iloprost concentration equal to 2 μg/ml
A 10 days short term stability study was conducted on the standards The test solutions were prepared 11 May 2012 and analysed 11 May 2012, n=2, 15 May 2012, and 21 May 2012 and finally […]. Between the days of analysis the samples were stored at 5° C.

For `CC#CCC(C)[C@H](O)/C=C/[C@@H]1[C@H]2C/C(=C/CCCC(=O)O)C[C@H]2C[C@H]1O` (stereo partly drawn) [Iloprost, 5-{(E)-(1S,5S,6R,7R)-7-hydroxy-6[(E)-(3S,4RS)-3-hydroxy-4-methyl-1-octen-6-inyl]-bi-cyclo[3.3.0]octan-3-ylidene}pentanoic acid], in series [1], the solubility in water result is recorded as “very slightly soluble”. Moreover, the short term stability entry in series [2] is given as “No indication on major instability”.
